Source: patent publication US20130065818A1, “Arylamide Compounds And Compositions And Uses Thereof” (POLYMEDIX, priority 2006, published 2013)
Where “and” joins values, the source holds several entries; their conditions need not be identical. Equal values may be shown once.

Legend:
Assay in all cases: MIC, 25 ocular isolates, broth microdilution (Example 8)
Format in all cases: cell-based
[1] = tested on: Haemophilus influenzae; conditions: for Minimum MIC / Maximum MIC / Mean MIC: descriptive statistics, n=25; for Maximum MIC / Mean MIC / Median MIC: >64 replaced with 128; for Median MIC: n=25 isolates
Procedure: HTM (Haemophilus Test Medium) in tubes was inoculated with 25 ocular isolates of Haemophilus influenzae plus two controls (Staphylococcus aureus and E. coli) and incubated at 37° C. overnight. Additionally, Mueller-Hinton Broth in tubes was inoculated with two controls (Staphylococcus aureus and E. coli) and incubated at 37° C. overnight on a shaker set at 250 rpm.
(§1) On the day of testing, a 640 μg/ml (1280 μg/ml for Serratia marcescens and Pseudomonas aeruginosa) concentration was prepared from a 1% stock solution in 0.01% acetic acid, 0.2% BSA in polypropylene tubes.
(§2) Serial doubling dilutions in 0.01% acetic acid, 0.2% BSA in 96 well polypropylene plates, which are used as reservoirs for the inoculation of the test plates, were carried out to obtain serial dilutions of test agents at 10 times the required test concentrations: 640, 320, 160, 80, 40, 20, 10, 5, 2.5, 1.25, and 0.625 μg/ml (1280, 640, 320, 160, 80, 40, 20, 10, 5, 2.5, and 1.25 μg/ml for Serratia marcescens and Pseudomonas aeruginosa).
(§3) Ten μl of diluted 10×test agents was added to each well of one row of the 96 well polypropylene plates from column 2 to column 12 (column 1 is a control for bacteria alone, with no peptide). Test agent concentrations in columns 2-12 were as follows: 64, 32, 16, 8, 4, 2, 1, 0.5, 0.25, 0.125, and 0.0625 μg/ml (128, 64, 32, 16, 8, 4, 2, 1, 0.5, 0.25, and 0.125 μg/ml for Serratia marcescens and Pseudomonas aeruginosa). The same peptide was in each of the 8 rows. One plate contained dilutions of one test agent and 8 bacterial isolates.
On the day of testing, the overnight bacterial broth cultures of Haemophilus species was diluted in 5 ml of trypticase soy broth to yield turbidity equal to a 0.5 McFarland standard. The final inoculum for MIC testing for Haemophilus species was achieved by placing 0.1 ml of the turbidity adjusted sample to 5 ml of HTM medium.
(§4) Ninety μl of the bacterial suspensions was dispensed in each well from column 1 to column 12. Each bacterial isolate was placed in one row of a 96 well polypropylene plate containing the test agents. The plates were placed on shaker at 15 minutes at room temperature, and then incubated at 37° C. overnight. MICs were determined visually as the lowest concentration of drug that inhibits visible bacterial growth.

[2] = tested on: Moraxella species (including Moraxella catarrhalis); conditions: for Minimum MIC / Maximum MIC / Mean MIC: descriptive statistics, n=25; for Maximum MIC / Mean MIC / Median MIC: >64 replaced with 128; for Median MIC: n=25 isolates
Procedure: (§5) Mueller-Hinton Broth supplemented with 2% lysed horse blood in tubes was inoculated with 25 ocular isolates of Streptococcus pneumoniae, Streptococcus viridans group, and Moraxella species (including Moraxella catarrhalis) plus two controls (Staphylococcus aureus and E. coli) and incubated at 37° C. overnight. Additionally, Mueller-Hinton Broth in tubes was inoculated with two controls (Staphylococcus aureus and E. coli) and incubated at 37° C. overnight on a shaker set at 250 rpm.
as §1, §2, §3
(§6) On the day of testing, the overnight bacterial broth cultures of Streptococcus pneumoniae, Streptococcus viridans and Moraxella species (including Moraxella catarrhalis) plus two controls (Staphylococcus aureus and E. coli) were diluted in 5 ml of trypticase soy broth to yield turbidity equal to a 0.5 McFarland standard. The final inoculum for MIC testing for Streptococcus pneumoniae, Streptococcus viridans and Moraxella species (including Moraxella catarrhalis) was achieved by placing 0.1 ml of the turbidity adjusted sample to 5 ml of Mueller-Hinton broth containing 2% lysed horse red blood cells.
as §4

[3] = tested on: Streptococcus pneumoniae; conditions: 25 isolates; >64 was Replaced with 128
Procedure: as §5, §1, §2, §3, §6, §4

[4] = tested on: Streptococcus viridans group; conditions: 25 isolates; >64 was Replaced with 128
Procedure: as §5, §1, §2, §3, §6, §4

[5] = tested on: Staphylococcus aureus fluoroquinolone-susceptible; parameters: Mean MIC (Descriptive Statistics) / Minimum MIC (Descriptive Statistics) / Maximum MIC (Descriptive Statistics): unit: µg/mL; conditions: 25 isolates
Procedure: (§7) • Mueller-Hinton Broth in tubes was inoculated with 25 ocular isolates of Staphylococcus aureus fluoroquinolone-susceptible, Staphylococcus aureus fluoroquinolone-resistant, Staphylococcus epidermidis (Coagulase-negative Staphylococcus) fluoroquinolone-susceptible, Staphylococcus epidermidis (Coagulase-negative Staphylococcus) fluoroquinolone-resistant, Pseudomonas aeruginosa and Serratia marcescens, plus two controls (Staphylococcus aureus and E. coli) and incubated at 37° C. overnight on a shaker set at 250 rpm.
as §1, §2, §3
(§8) On the day of testing, the overnight bacterial broth cultures of Staphylococcus aureus fluoroquinolone-susceptible, Staphylococcus aureus fluoroquinolone-resistant, Staphylococcus epidermidis (Coagulase-negative Staphylococcus) fluoroquinolone-susceptible, Staphylococcus epidermidis (Coagulase-negative Staphylococcus) fluoroquinolone-resistant, Serratia marcescens, and Pseudomonas aeruginosa, plus two controls (Staphylococcus aureus and E. coli) were diluted in 5 ml of trypticase soy broth to yield turbidity equal to a 0.5 McFarland standard. The final inoculum for MIC testing for Staphylococcus aureus fluoroquinolone-susceptible, Staphylococcus aureus fluoroquinolone-resistant, Staphylococcus epidermidis (Coagulase-negative Staphylococcus) fluoroquinolone-susceptible, Staphylococcus epidermidis (Coagulase-negative Staphylococcus) fluoroquinolone-resistant, Serratia marcescens, and Pseudomonas aeruginosa was achieved by placing 0.05 ml of the turbidity adjusted sample to 5 ml of Mueller-Hinton broth.
as §4

[6] = tested on: Staphylococcus epidermidis (Coagulase-negative Staphylococcus) fluoroquinolone-susceptible; conditions: 25 isolates; <0.0625 was Replaced with 0.03125
Procedure: as §7, §1, §2, §3, §8, §4

[7] = tested on: Pseudomonas aeruginosa; conditions: 25 isolates; >128 was Replaced with 256
Procedure: as §7, §1, §2, §3, §8, §4

[8] = tested on: Staphylococcus aureus fluoroquinolone-resistant; conditions: 25 isolates
Procedure: as §7, §1, §2, §3, §8, §4

[9] = tested on: Staphylococcus epidermidis (Coagulase-negative Staphylococcus) fluoroquinolone-resistant; conditions: 25 isolates; <0.0625 was Replaced with 0.03125
Procedure: as §7, §1, §2, §3, §8, §4

[10] = tested on: Serratia marcescens; conditions: 25 isolates; >128 was Replaced with 256
Procedure: as §7, §1, §2, §3, §8, §4

For `N=C(N)NCCCCC(=O)Nc1cc(C(F)(F)F)cc(NC(=O)c2cc(C(=O)Nc3cc(C(F)(F)F)cc(NC(=O)CCCCNC(=N)N)c3O[C@@H]3CCNC3)ncn2)c1O[C@@H]1CCNC1` [Olig 4], the “Minimum MIC” value [1] was 2.00 µg/mL, the “Maximum MIC” value [1] was 32.00 µg/mL and the “Mean MIC” value [1] was 8.56 µg/mL. The “Median MIC” value [1] was 8.00 µg/mL, the “Minimum MIC” value [2] was 0.50 µg/mL and the “Maximum MIC” value [2] was 128.00 µg/mL. For the same molecule, the “Mean MIC” value [2] was 21.42 µg/mL, the “Median MIC” value [2] was 4.00 µg/mL and the Maximum MIC (Descriptive Statistics) [3] was 128 µg/mL. The Mean MIC (Descriptive Statistics) [3] was 6.08 µg/mL, the “Median MIC (Descriptive Statistics / Mann-Whitney)” value [3] was 1.00 and the Minimum MIC (Descriptive Statistics) [3] was 0.5 µg/mL. For the same molecule, the Maximum MIC (Descriptive Statistics) [4] was 32 µg/mL, the Mean MIC (Descriptive Statistics) [4] was 5.84 µg/mL and the “Median MIC (Descriptive Statistics / Mann-Whitney)” value [4] was 4.00. For the same molecule, the Minimum MIC (Descriptive Statistics) [4] was 1 µg/mL, the “Maximum MIC (Descriptive Statistics)” value [5] was 0.5000 and the “Mean MIC (Descriptive Statistics)” value [5] was 0.2850. For the same molecule, the “Median MIC (Descriptive Statistics / Mann-Whitney)” value [5] was 0.2500, the “Minimum MIC (Descriptive Statistics)” value [5] was 0.1250 and the “Maximum MIC (Descriptive Statistics)” value [6] was 0.2500. For the same molecule, the “Mean MIC (Descriptive Statistics)” value [6] was 0.1388, the “Median MIC (Descriptive Statistics / Mann-Whitney)” value [6] was 0.125 and the “Minimum MIC (Descriptive Statistics)” value [6] was 0.0313. For the same molecule, the Maximum MIC (Descriptive Statistics) [7] was 8 µg/mL, the Mean MIC (Descriptive Statistics) [7] was 3.54 µg/mL and the “Median MIC (Descriptive Statistics / Mann-Whitney)” value [7] was 4.00. The Minimum MIC (Descriptive Statistics) [7] was 0.5 µg/mL, the “Maximum MIC (Descriptive Statistics)” value [8] was 1.0000 and the “Mean MIC (Descriptive Statistics)” value [8] was 0.3200. For the same molecule, the “Median MIC (Descriptive Statistics / Mann-Whitney)” value [8] was 0.2500, the “Minimum MIC (Descriptive Statistics)” value [8] was 0.1250 and the “Maximum MIC (Descriptive Statistics)” value [9] was 0.2500. The “Mean MIC (Descriptive Statistics)” value [9] was 0.1300, the “Median MIC (Descriptive Statistics / Mann-Whitney)” value [9] was 0.125 and the “Minimum MIC (Descriptive Statistics)” value [9] was 0.0313. The Maximum MIC (Descriptive Statistics) [10] was 32 µg/mL, the Mean MIC (Descriptive Statistics) [10] was 12.4 µg/mL and the “Median MIC (Descriptive Statistics / Mann-Whitney)” value [10] was 8.00. For the same molecule, the Minimum MIC (Descriptive Statistics) [10] was 0.25 µg/mL.

With `N=C(N)NCCCCC(=O)Nc1cc(C(F)(F)F)cc(NC(=O)c2cnc(C(=O)Nc3cc(C(F)(F)F)cc(NC(=O)CCCCNC(=N)N)c3SCCN)cn2)c1SCCN` [Olig 5] the “Minimum MIC” value [1] was 2.0 µg/mL, the “Maximum MIC” value [1] was 128.0 µg/mL and the “Mean MIC” value [1] was 48.6 µg/mL. For the same molecule, the “Median MIC” value [1] was 16.0 µg/mL and 16.00 µg/mL, the “Minimum MIC” value [2] was 0.13 µg/mL and the “Maximum MIC” value [2] was 128.00 µg/mL. The “Mean MIC” value [2] was 13.26 µg/mL, the “Median MIC” value [2] was 0.50 µg/mL and the Maximum MIC (Descriptive Statistics) [3] was 128 µg/mL. For the same molecule, the Mean MIC (Descriptive Statistics) [3] was 10.6 µg/mL, the “Median MIC (Descriptive Statistics / Mann-Whitney)” value [3] was 4.00 and the Minimum MIC (Descriptive Statistics) [3] was 0.5 µg/mL. For the same molecule, the Maximum MIC (Descriptive Statistics) [4] was 128 µg/mL, the Mean MIC (Descriptive Statistics) [4] was 36.8 µg/mL and the “Median MIC (Descriptive Statistics / Mann-Whitney)” value [4] was 16.00. The Minimum MIC (Descriptive Statistics) [4] was 0.5 µg/mL, the “Maximum MIC (Descriptive Statistics)” value [5] was 0.5000 and the “Mean MIC (Descriptive Statistics)” value [5] was 0.2450. For the same molecule, the “Median MIC (Descriptive Statistics / Mann-Whitney)” value [5] was 0.2500, the “Minimum MIC (Descriptive Statistics)” value [5] was 0.1250 and the “Maximum MIC (Descriptive Statistics)” value [6] was 0.2500. The “Mean MIC (Descriptive Statistics)” value [6] was 0.1375, the “Median MIC (Descriptive Statistics / Mann-Whitney)” value [6] was 0.125 and the “Minimum MIC (Descriptive Statistics)” value [6] was 0.0313. The Maximum MIC (Descriptive Statistics) [7] was 256 µg/mL, the Mean MIC (Descriptive Statistics) [7] was 85.9 µg/mL and the “Median MIC (Descriptive Statistics / Mann-Whitney)” value [7] was 64.0. The Minimum MIC (Descriptive Statistics) [7] was 4 µg/mL, the “Maximum MIC (Descriptive Statistics)” value [8] was 0.5000 and the “Mean MIC (Descriptive Statistics)” value [8] was 0.2900. For the same molecule, the “Median MIC (Descriptive Statistics / Mann-Whitney)” value [8] was 0.2500, the “Minimum MIC (Descriptive Statistics)” value [8] was 0.1250 and the “Maximum MIC (Descriptive Statistics)” value [9] was 0.5000. For the same molecule, the “Mean MIC (Descriptive Statistics)” value [9] was 0.1475, the “Median MIC (Descriptive Statistics / Mann-Whitney)” value [9] was 0.125 and the “Minimum MIC (Descriptive Statistics)” value [9] was 0.0313. The Maximum MIC (Descriptive Statistics) [10] was 256 µg/mL, the Mean MIC (Descriptive Statistics) [10] was 233 µg/mL and the “Median MIC (Descriptive Statistics / Mann-Whitney)” value [10] was 256.0. It also gave a Minimum MIC (Descriptive Statistics) [10] of 8 µg/mL.
